Source: US20130053381A1, “2,4-DIOXO-1,4-DIHYDRO-2H-QUINAZOLIN-3-YL-SULFONAMIDE DERIVATIVES” (NOVARTIS AG, priority 2010, published 2013)

system: OF1 mice; assay: Maximal electroshock test (MES Test); assay type: in vivo; conditions: Mus musculus, po; 50 mg/kg, p.o., pre-treatment time −1 h; read-out: %-Protection
Outline: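 Compound given p.o. (typically 50 mg/kg) 1 h before tonic-clonic convulsions were induced via temporal electrodes (50 Hz, 18 mA, 0.2 s); seizure lasting 3 s or less counted as protection. Read-out is percent protected of five mice per condition; ED50 calculated, blood exposure sampled after shock.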

SMILES	responders at 50 mg/kg [%]
CCn1nccc1-c1cc2c(=O)n(NS(C)(=O)=O)c(=O)[nH]c2cc1C(F)(F)F [Example 15.0, N-[6-(2-Ethyl-2H-pyrazol-3-yl)-2,4-dioxo-7-trifluoromethyl-1,4-dihydro-2H-quinazolin-3-yl]-methanesulfonamide]	0
CCn1nccc1-c1cc2c(=O)n(N(C(=O)OC)S(C)(=O)=O)c(=O)[nH]c2cc1C(F)(F)F [Example 15.01, [6-(2-Ethyl-2H-pyrazol-3-yl)-2,4-dioxo-7-trifluoromethyl-1,4-dihydro-2H-quinazolin-3-yl]-methanesulfonyl-carbamic acid methyl ester]	40
CCC(=O)N(n1c(=O)[nH]c2cc(C(F)(F)F)c(-c3ccnn3CC)cc2c1=O)S(C)(=O)=O [Example 15.02, N-[6-(2-Ethyl-2H-pyrazol-3-yl)-2,4-dioxo-7-trifluoromethyl-1,4-dihydro-2H-quinazolin-3-yl]-N-propionyl-methanesulfonamide]	20
CCCCOC(=O)N(n1c(=O)[nH]c2cc(C(F)(F)F)c(-c3ccnn3CC)cc2c1=O)S(C)(=O)=O [Example 15.03, [6-(2-Ethyl-2H-pyrazol-3-yl)-2,4-dioxo-7-trifluoromethyl-1,4-dihydro-2H-quinazolin-3-yl]-methanesulfonyl-carbamic acid butyl ester]	20
CCn1nccc1-c1cc2c(=O)n(N(C(=O)C(C)(C)C)S(C)(=O)=O)c(=O)[nH]c2cc1C(F)(F)F [Example 15.04, N-(2,2-Dimethyl-propionyl)-N-[6-(2-ethyl-2H-pyrazol-3-yl)-2,4-dioxo-7-trifluoromethyl-1,4-dihydro-2H-quinazolin-3-yl]-methanesulfonamide]	20

same assay, conditions: Mus musculus; dose of up to 50 mg/kg, p.o., 1 hour prior to induction of convulsions; read-out: %-Protection

SMILES	responders at 50 mg/kg [%]
CCc1cc2[nH]c(=O)n(N(C(=O)OCCOC)S(C)(=O)=O)c(=O)c2cc1-c1ccnn1CC [Methanesulfonyl-[7-ethyl-6-(2-ethyl-2H-pyrazol-3-yl)-2,4-dioxo-1,4-dihydro-2H-quinazolin-3-yl]carbamic acid 2-methoxy-ethyl ester]	0
CCOC(=O)N(n1c(=O)[nH]c2cc(CC)c(-c3ccnn3CC)cc2c1=O)S(C)(=O)=O [Methanesulfonyl-[7-ethyl-6-(2-ethyl-2H-pyrazol-3-yl)-2,4-dioxo-1,4-dihydro-2H-quinazolin-3-yl]carbamic acid ethyl ester]	0
CCc1cc2[nH]c(=O)n(N(C(=O)OC)S(C)(=O)=O)c(=O)c2cc1-c1ccnn1CC [Methanesulfonyl-[7-ethyl-6-(2-ethyl-2H-pyrazol-3-yl)-2,4-dioxo-1,4-dihydro-2H-quinazolin-3-yl]carbamic acid methyl ester]	0
CCCOC(=O)N(n1c(=O)[nH]c2cc(CC)c(-c3ccnn3CC)cc2c1=O)S(C)(=O)=O [Methanesulfonyl-[7-ethyl-6-(2-ethyl-2H-pyrazol-3-yl)-2,4-dioxo-1,4-dihydro-2H-quinazolin-3-yl]carbamic acid propyl ester]	0
CCCCCCOC(=O)N(n1c(=O)[nH]c2cc(CC)c(-c3ccnn3C)cc2c1=O)S(C)(=O)=O [Methanesulfonyl-[7-ethyl-6-(2-methyl-2H-pyrazol-3-yl)-2,4-dioxo-1,4-dihydro-2H-quinazolin-3-yl]carbamic acid hexyl ester]	0
CCCCCCOC(=O)N(n1c(=O)[nH]c2cc(C(F)(F)F)c([C@H]3CCCO3)cc2c1=O)S(C)(=O)=O [Methanesulfonyl-[(R)-2,4-Dioxo-6-tetrahydro-furan-2-yl-7-trifluoromethyl-1,4-dihydro-2H-quinazolin-3-yl]carbamic acid hexyl ester]	0
CC(C)OC(=O)N(n1c(=O)[nH]c2cc(C(F)(F)F)c([C@H]3CCCO3)cc2c1=O)S(C)(=O)=O [Methanesulfonyl-[(R)-2,4-Dioxo-6-tetrahydro-furan-2-yl-7-trifluoromethyl-1,4-dihydro-2H-quinazolin-3-yl]carbamic acid isopropyl ester]	0
CCCCCOC(=O)N(n1c(=O)[nH]c2cc(C(F)(F)F)c([C@H]3CCCO3)cc2c1=O)S(C)(=O)=O [Methanesulfonyl-[(R)-2,4-Dioxo-6-tetrahydro-furan-2-yl-7-trifluoromethyl-1,4-dihydro-2H-quinazolin-3-yl]carbamic acid pentyl ester]	0
CCCOC(=O)N(n1c(=O)[nH]c2cc(C(F)(F)F)c([C@H]3CCCO3)cc2c1=O)S(C)(=O)=O [Methanesulfonyl-[(R)-2,4-Dioxo-6-tetrahydro-furan-2-yl-7-trifluoromethyl-1,4-dihydro-2H-quinazolin-3-yl]carbamic acid propyl ester]	0
CCn1nccc1-c1cc2c(=O)n(N(C(C)=O)S(C)(=O)=O)c(=O)[nH]c2cc1C(F)(F)F [N-Acetyl-N-[6-(2-ethyl-2H-pyrazol-3-yl)-2,4-dioxo-7-trifluoromethyl-1,4-dihydro-2H-quinazolin-3-yl]-methanesulfonamide]	0
CCn1nccc1-c1cc2c(=O)n(N(C(C)=O)S(C)(=O)=O)c(=O)[nH]c2cc1C(F)F [N-Acetyl-N-[7-difluoromethyl-6-(2-ethyl-2H-pyrazol-3-yl)-2,4-dioxo-1,4-dihydro-2H-quinazolin-3-yl]-methanesulfonamide]	0
CCc1cc2[nH]c(=O)n(N(C(C)=O)S(C)(=O)=O)c(=O)c2cc1-c1ccnn1CC [N-Acetyl-N-[7-ethyl-6-(2-ethyl-2H-pyrazol-3-yl)-2,4-dioxo-1,4-dihydro-2H-quinazolin-3-yl]-methanesulfonamide]	0
CCCC(=O)N(n1c(=O)[nH]c2cc(CC)c(-c3ccnn3CC)cc2c1=O)S(C)(=O)=O [N-Butyryl-N-[7-ethyl-6-(2-ethyl-2H-pyrazol-3-yl)-2,4-dioxo-1,4-dihydro-2H-quinazolin-3-yl]-methanesulfonamide]	0
CCn1nccc1-c1cc2c(=O)n(N(C(=O)CCSC)S(C)(=O)=O)c(=O)[nH]c2cc1C(F)(F)F [N-[6-(2-Ethyl-2H-pyrazol-3-yl)-2,4-dioxo-7-trifluoromethyl-1,4-dihydro-2H-quinazolin-3-yl]-N-(3-methylsulfanyl-propionyl)-methanesulfonamide]	0
CCCCC(=O)N(n1c(=O)[nH]c2cc(C(F)(F)F)c(-c3ccnn3CC)cc2c1=O)S(C)(=O)=O [N-[6-(2-Ethyl-2H-pyrazol-3-yl)-2,4-dioxo-7-trifluoromethyl-1,4-dihydro-2H-quinazolin-3-yl]-N-pentanoyl-methanesulfonamide]	0
CCCCC(=O)N(n1c(=O)[nH]c2cc(C(F)(F)F)c(-c3ccnn3C(C)C)cc2c1=O)S(C)(=O)=O [N-[6-(2-Isopropyl-2H-pyrazol-3-yl)-2,4-dioxo-7-trifluoromethyl-1,4-dihydro-2H-quinazolin-3-yl]-N-pentanoyl-methanesulfonamide]	0
CCn1nccc1-c1cc2c(=O)n(N(C(=O)C(C)(C)C)S(C)(=O)=O)c(=O)[nH]c2cc1C(F)F [N-[7-Difluoromethyl-6-(2-ethyl-2H-pyrazol-3-yl)-2,4-dioxo-1,4-dihydro-2H-quinazolin-3-yl]-N-(2,2-dimethyl-propionyl)-methanesulfonamide]	0
